These are literature values, as cited in patent US9820991B2, “Pharmaceutical composition comprising brinzolamide” (SENTISS PHARMA PVT. LTD., priority 2013, dated 2017).

For the series the following is noted: in tear fluid.

Consider `CCN[C@H]1CN(CCCOC)S(=O)(=O)c2sc(S(N)(=O)=O)cc21` [brinzolamide, (R)-(+)-4-Ethylamino-2-(3-methoxypropyl)-3,4-dihydro-2H-thieno [3,2-e]-1,2-thiazine-6-sulfonamide-1,1-dioxide], for which the solubility result was “around 0.08%”.
